In the assay the test system is monosodium urate (MSU) crystal-induced air pouch inflammation. Put plainly: Air Pouch Model 1: MSU crystal air pouch, rodent model of gout. The class given is in vivo, male Sprague-Dawley rats. To be noted: for Average Exudate Volume / Average Plasma Extravasation, OD620 nm / Total WBC in Sample / WBC: +MSU, 4 h. The procedure: The objective of this study was to evaluate the anti-inflammatory affects of tranilast versus a clinically active treatment for gout, colchicine, as well as a clinically active non-steroidal antiinflammatory drug, indomethacin. This evaluation was carried out in male Sprague-Dawley rats in a rodent model of gout. The animals were injected subcutaneously with 20 ml of sterile air, followed three days later by a supplemental injection with 20 ml of sterile air. Six days after the initial sterile air injection, the rats were injected intravenously with Evan's Blue and pretreated for thirty minutes with either a subcutaneous injection of colchicine (1 mg/kg) or indomethacin (5 mg/kg) or oral administration with either 200 mg/kg or 400 mg/kg of tranilast. After the pretreatment period, the rats were injected with 150 mg of monosodium urate (MSU) crystals (10 mg·ml) into the air pouch. Four hours later, the air pouch was injected with 5 ml heparinized saline and the entire contents of the air pouch removed, recording the total volume. The air pouch contents were evaluated for plasma extravasation and total white blood cell (WBC) count.
On day 0 the rats were anesthetized in a biological cabinet, the nape of the neck was cleansed with 70% isopropanol followed by iodine tincture (VEDCO, lot L021976). Twenty ml sterile (0.22 μm, Fisher Scientific, Cat. 09-720-3, lot R5SN25683) air was injected subcutaneously using a 23 G×2 inch needle fixed to a 20 ml syringe. The rats were returned to routine housing. No adverse reactions were observed.
On day 3 the rats were anesthetized in a biological cabinet, the nape of the neck was cleansed with 70% isopropanol followed by iodine tincture (VEDCO, lot L021976). Twenty ml sterile (0.22 μm, Fisher Scientific, Cat. 09-720-3, lot R5SN25683) air was injected subcutaneously using a 23 G×2 inch needle fixed to a 20 ml syringe. The rats were returned to routine housing. No adverse reactions were observed.
On day 6 the rats were weighed (Mettler, Model PE3000, SN: F69474) and sorted into six treatment groups of ten animals each, based upon average weight. The animals were either dosed subcutaneously with 1 ml/kg colchicine or indomethacin, or orally with either 4 ml/kg or 8 ml/kg tranilast, or 8 ml/kg vehicle. Immediately after test material administration, the rats were intravenously injected with 2 ml/kg Evans Blue.
Thirty minutes after test material administration, the rats were anesthetized and five groups were injected into the air pouch with 15 ml MSU using an 18 G×1 inch needle fitted to a 20 ml syringe. The sixth group was injected with 15 ml saline. The rats were returned to their cages, no adverse affects were observed.
Four hours after MSU injection, the rats were anesthetized and 5 ml 10 U/ml heparinized saline was injected into the air pouch. The air pouch was gently massaged, the contents immediately removed using a 14 G×1 inch needle fitted to a 6 ml syringe, and the exudate volume recorded. An aliquot of the exudate was transferred to heparin-treated microtainer tubes (Becton Dickinson, Cat. 365958, lot 8093666, exp. June 09) for white blood cell (WBC) counting. The remainder of the exudate was centrifuged (Hermle Labrotechnik, Model Z200A, SN: 44060036), the supernatants removed and evaluated at OD620nm (Spectronic Unicam, Model 4000 1/4, SN: 3SGD003006) for plasma extravasation.

Where [1] appears, read: Group 4: tranilast 200 mg/kg oral.
Setting [2] is: Group 5: tranilast 400 mg/kg oral.
[3] abbreviates: oral tranilast 30 min before MSU, regardless of dose (200 or 400 mg/kg).

On to `COc1ccc(/C=C/C(=O)Nc2ccccc2C(=O)O)cc1OC` [Tranilast, 2-[[3-(3,4-dimethoxyphenyl)-1-oxo-2-propenyl]amino]benzoic acid], for which, under setting [1], the “Average Exudate Volume” value was determined as 6.5 mL; the “Average Plasma Extravasation, OD620 nm” value was found to be 0.697; the “Total WBC in Sample” value is on record as 15925556; the WBC was 2524444 cells/ml. For the same compound, under setting [2], the “Average Exudate Volume” value came to 5.3 mL; the “Average Plasma Extravasation, OD620 nm” value is on record as 0.626; the “Total WBC in Sample” value turned out to be 15162222; the WBC is recorded as 3144444 cells/ml. For the same compound, under setting [3], the “inhibition of plasma extravasation” value is recorded as 60% and the “inhibition of white blood cell infiltration” value amounted to 95%.

These data come from patent US20100160351A1, “PHARMACEUTICAL COMPOSITIONS AND METHODS FOR TREATING HYPERURICEMIA AND RELATED DISORDERS” (NUON THERAPEUTICS, INC., priority 2008, published 2010).
